This passage reports IC50 results from ChEMBL document CHEMBL1150537, “Synthesis of echiguanine analogs and their ribofuranosyl glycosides that inhibit phosphatidylinositol 4-kinase” (Bioorg Med Chem Lett, 1997).

Converted amounts (≈) assume the structure as drawn. A value given as a limit tells only on which side of the number the result lay.

The target in one assay is T1, Phosphatidylinositol 4-kinase, PI4K (Homo sapiens, UniProt Q9BTU6+Q8TCG2+Q9UBF8+P42356). In words: Inhibition of Phosphatidylinositol 4-kinase of human epidermoid carcinoma A431 cells. The class given is cell-based. To be noted: a-431.
`N#CCCNC(=O)c1c[nH]c2nc(N)nc(O)c12` displayed an IC50 of 0.45 µg/mL (≈ 1.83 µM).

In turn, `N=C(N)NCCCNC(=O)c1c[nH]c2nc(N)nc(O)c12` gave a concentration for half-maximal inhibition (IC50) of 0.15 µg/mL (≈ 0.513 µM).

Turning to `NC(=O)CCNC(=O)c1c[nH]c2nc(N)nc(O)c12`, the IC50 worked out at 0.02 µg/mL (≈ 0.0757 µM).

Compound `COC(=O)CCNC(=O)c1c[nH]c2nc(N)nc(O)c12` displayed an IC50 of 0.3 µg/mL (≈ 1.07 µM).

`N=C(N)CCNC(=O)c1cn(C2O[C@H](CO)C(O)[C@H]2O)c2nc(N)nc(O)c12` (single isomer, unassigned) displayed a half-maximal inhibitory concentration (IC50) of 100 µg/mL (≈ 253 µM).

`NCCCNC(=O)c1cn(C2O[C@H](CO)C(O)[C@H]2O)c2nc(N)nc(O)c12` (single isomer, unassigned) showed an IC50 above 100 µg/mL.

In the case of `N=C(S)CCNC(=O)c1cn(C2O[C@H](CO)C(O)[C@H]2O)c2nc(N)nc(O)c12` (single isomer, unassigned), the IC50 is above 100 µg/mL.

Turning to `NC(=O)CCNC(=O)c1cn(C2O[C@H](CO)C(O)[C@H]2O)c2nc(N)nc(O)c12` (single isomer, unassigned), the IC50 came out at 2.4 µg/mL (≈ 6.06 µM).

In turn, `NC(=O)NCCCNC(=O)c1cn(C2O[C@H](CO)C(O)[C@H]2O)c2nc(N)nc(O)c12` (single isomer, unassigned) showed an IC50 of 1 µg/mL (≈ 2.35 µM).

Consider `N=C(N)NCCCNC(=O)c1cn(C2O[C@H](CO)C(O)[C@H]2O)c2nc(N)nc(O)c12` (single isomer, unassigned), for which the 50% inhibitory concentration (IC50) was 7.5 µg/mL (≈ 17.7 µM).

`COC(=O)CCNC(=O)c1cn(C2O[C@H](CO)C(O)[C@H]2O)c2nc(N)nc(O)c12` (single isomer, unassigned) registered a half-maximal inhibitory concentration (IC50) of 25 µg/mL (≈ 60.8 µM).

`N#CCCNC(=O)c1cn(C2O[C@H](CO)C(O)[C@H]2O)c2nc(N)nc(O)c12` (single isomer, unassigned) registered an IC50 above 100 µg/mL.

`NCCCNC(=O)c1c[nH]c2nc(N)nc(O)c12` [ECHIGUANINE B]: the half-maximal inhibitory concentration (IC50) is 0.18 µg/mL (≈ 0.719 µM).

The target in the next assay is T1, Phosphatidylinositol 4-kinase, PI4K. In words: Inhibition of Phosphatidylinositol 4-kinase of human epidermoid carcinoma A431 cells (Not prepared). The class given is cell-based. The following applies: a-431.
Regarding `NC(=O)NCCCNC(=O)c1c[nH]c2nc(N)nc(O)c12`, the IC50 result is “Not prepared”.

On to `N=C(S)CCNC(=O)c1c[nH]c2nc(N)nc(O)c12`, for which the half-maximal inhibitory concentration (IC50) entry was “Not prepared”.

Usually IC50 stands for the concentration that gives 50% inhibition. A low value points to greater potency in that assay.
